Key:
Test in all cases: Test B pre-/postemergence
Assay type in all cases: in vivo
Design in all cases: key: 0 is no effect; 10 is complete control
[1] = system: giant foxtail (Setaria faberii)
Outline: (§1)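 Scored visually 0 (none) to 10 (complete control) against untreated plants after twelve to sixteen greenhouse days. Test chemicals, formulated in surfactant-containing non-phytotoxic solvent, applied to soil after planting and, separately, onto 1- to 4-leaf (2–18 cm) plants.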

[2] = system: momingglory (Ipomoea hederacea)
Outline: as §1

[3] = system: pigweed (Amaranthus retroflexus)
Outline: as §1

[4] = system: purple nutsedge (Cyperus rotundus)
Outline: as §1

wild oat (Avena fatua) = system: wild oat (Avena fatua)
Outline: as §1

soybean (Glycine max) = system: soybean (Glycine max)
Outline: as §1

[5] = system: velvetleaf (Abutilon theophrasti)
Outline: as §1

[6] = system: blackgrass (Alopecurus myosuroides)
Outline: as §1

[7] = system: broadleaf signalgrass (Brachiaria decumbens)
Outline: as §1

[8] = system: wheat (Triticum aestivum)
Outline: as §1

[9] = system: sugar beet (Beta vulgaris)
Outline: as §1

[10] = system: cocklebur (Xanthium strumarium)
Outline: as §1

corn (Zea mays) = system: corn (Zea mays)
Outline: as §1

[11] = system: crabgrass (Digitaria sanguinalis)
Outline: as §1

[12] = Preemergence, Rate 62 g/ha, scale of 0 to 10

Cc1cnc(-n2ccc(C(F)(F)C(F)(F)F)n2)nc1C(=O)c1cccc(C(F)(F)F)c1 [Compound 68]
Plant response rating, Giant foxtail [1, 12]: 3
Giant foxtail plant response rating ([1]; Rate 62 g/ha, Postemergence): 1
Giant foxtail plant response rating ([1]; Rate 125 g/ha, Postemergence): 2
Plant response rating, Giant foxtail ([1]; Rate 125 g/ha, Preemergence): 6
Plant response rating, Giant foxtail ([1]; Rate 250 g/ha, Postemergence): 2
Plant response rating, Giant foxtail ([1]; Rate 250 g/ha, Preemergence): 9
Plant response rating, Giant foxtail ([1]; Rate 500 g/ha, Postemergence): 3
Plant response rating, Giant foxtail ([1]; Rate 500 g/ha, Preemergence): 10
Plant response rating, Morningglory [2, 12]: 3
Morningglory plant response rating ([2]; Rate 62 g/ha, Postemergence): 2
Morningglory plant response rating ([2]; Rate 125 g/ha, Postemergence): 8
Plant response rating, Morningglory ([2]; Rate 125 g/ha, Preemergence): 3
Plant response rating, Morningglory ([2]; Rate 250 g/ha, Postemergence): 10
Plant response rating, Morningglory ([2]; Rate 250 g/ha, Preemergence): 5
Plant response rating, Morningglory ([2]; Rate 500 g/ha, Postemergence): 10
Plant response rating, Morningglory ([2]; Rate 500 g/ha, Preemergence): 9
Plant response rating, Redroot pigweed [3, 12]: 8
Redroot pigweed plant response rating ([3]; Rate 62 g/ha, Postemergence): 9
Redroot pigweed plant response rating ([3]; Rate 125 g/ha, Postemergence): 10
Plant response rating, Redroot pigweed ([3]; Rate 125 g/ha, Preemergence): 9
Plant response rating, Redroot pigweed ([3]; Rate 250 g/ha, Postemergence): 10
Plant response rating, Redroot pigweed ([3]; Rate 250 g/ha, Preemergence): 10
Plant response rating, Redroot pigweed ([3]; Rate 500 g/ha, Postemergence): 10
Plant response rating, Redroot pigweed ([3]; Rate 500 g/ha, Preemergence): 10
Plant response rating, Nutsedge [4, 12]: 0
Nutsedge plant response rating ([4]; Rate 62 g/ha, Postemergence): 0
Nutsedge plant response rating ([4]; Rate 125 g/ha, Postemergence): 0
Plant response rating, Nutsedge ([4]; Rate 125 g/ha, Preemergence): 0
Plant response rating, Nutsedge ([4]; Rate 250 g/ha, Postemergence): 0
Plant response rating, Nutsedge ([4]; Rate 250 g/ha, Preemergence): 0
Plant response rating, Nutsedge ([4]; Rate 500 g/ha, Preemergence): 0
Plant response rating, Wild oats (wild oat (Avena fatua); [12]): 4
Wild oats plant response rating (wild oat (Avena fatua); Rate 62 g/ha, Postemergence): 2
Wild oats plant response rating (wild oat (Avena fatua); Rate 125 g/ha, Postemergence): 2
Plant response rating, Wild oats (wild oat (Avena fatua); Rate 125 g/ha, Preemergence): 6
Plant response rating, Wild oats (wild oat (Avena fatua); Rate 250 g/ha, Postemergence): 2
Plant response rating, Wild oats (wild oat (Avena fatua); Rate 250 g/ha, Preemergence): 7
Plant response rating, Wild oats (wild oat (Avena fatua); Rate 500 g/ha, Postemergence): 3
Plant response rating, Wild oats (wild oat (Avena fatua); Rate 500 g/ha, Preemergence): 8
Plant response rating, Soybean (soybean (Glycine max); [12]): 0
Soybean plant response rating (soybean (Glycine max); Rate 62 g/ha, Postemergence): 3
Soybean plant response rating (soybean (Glycine max); Rate 125 g/ha, Postemergence): 5
Plant response rating, Soybean (soybean (Glycine max); Rate 125 g/ha, Preemergence): 1
Plant response rating, Soybean (soybean (Glycine max); Rate 250 g/ha, Postemergence): 7
Plant response rating, Soybean (soybean (Glycine max); Rate 250 g/ha, Preemergence): 2
Plant response rating, Soybean (soybean (Glycine max); Rate 500 g/ha, Postemergence): 7
Plant response rating, Soybean (soybean (Glycine max); Rate 500 g/ha, Preemergence): 2
Plant response rating, Velvetleaf [5, 12]: 2
Velvetleaf plant response rating ([5]; Rate 62 g/ha, Postemergence): 6
Velvetleaf plant response rating ([5]; Rate 125 g/ha, Postemergence): 7
Plant response rating, Velvetleaf ([5]; Rate 125 g/ha, Preemergence): 7
Plant response rating, Velvetleaf ([5]; Rate 250 g/ha, Postemergence): 7
Plant response rating, Velvetleaf ([5]; Rate 250 g/ha, Preemergence): 7
Plant response rating, Velvetleaf ([5]; Rate 500 g/ha, Postemergence): 8
Plant response rating, Velvetleaf ([5]; Rate 500 g/ha, Preemergence): 8
Plant response rating, Blackgrass [6, 12]: 3
Blackgrass plant response rating ([6]; Rate 62 g/ha, Postemergence): 2
Blackgrass plant response rating ([6]; Rate 125 g/ha, Postemergence): 3
Plant response rating, Blackgrass ([6]; Rate 125 g/ha, Preemergence): 5
Plant response rating, Blackgrass ([6]; Rate 250 g/ha, Postemergence): 4
Plant response rating, Blackgrass ([6]; Rate 250 g/ha, Preemergence): 7
Plant response rating, Blackgrass ([6]; Rate 500 g/ha, Postemergence): 5
Plant response rating, Blackgrass ([6]; Rate 500 g/ha, Preemergence): 7
B. signalgrass plant response rating ([7]; Rate 62 g/ha, Postemergence): 2
B. signalgrass plant response rating ([7]; Rate 62 g/ha, Preemergence): 5
B. signalgrass plant response rating ([7]; Rate 125 g/ha, Postemergence): 3
Plant response rating, B. signalgrass ([7]; Rate 125 g/ha, Preemergence): 8
Plant response rating, B. signalgrass ([7]; Rate 250 g/ha, Postemergence): 3
Plant response rating, B. signalgrass ([7]; Rate 250 g/ha, Preemergence): 9
Plant response rating, B. signalgrass ([7]; Rate 500 g/ha, Postemergence): 5
Plant response rating, B. signalgrass ([7]; Rate 500 g/ha, Preemergence): 10
Plant response rating, Wheat [8, 12]: 1
Wheat plant response rating ([8]; Rate 62 g/ha, Postemergence): 2
Wheat plant response rating ([8]; Rate 125 g/ha, Postemergence): 2
Plant response rating, Wheat ([8]; Rate 125 g/ha, Preemergence): 1
Plant response rating, Wheat ([8]; Rate 250 g/ha, Postemergence): 2
Plant response rating, Wheat ([8]; Rate 250 g/ha, Preemergence): 2
Plant response rating, Wheat ([8]; Rate 500 g/ha, Postemergence): 4
Plant response rating, Wheat ([8]; Rate 500 g/ha, Preemergence): 4
Plant response rating, Sugarbeets [9, 12]: 9
Sugarbeets plant response rating ([9]; Rate 62 g/ha, Postemergence): 10
Sugarbeets plant response rating ([9]; Rate 125 g/ha, Postemergence): 10
Plant response rating, Sugarbeets ([9]; Rate 125 g/ha, Preemergence): 10
Plant response rating, Sugarbeets ([9]; Rate 250 g/ha, Postemergence): 10
Plant response rating, Sugarbeets ([9]; Rate 250 g/ha, Preemergence): 10
Plant response rating, Sugarbeets ([9]; Rate 500 g/ha, Postemergence): 10
Plant response rating, Sugarbeets ([9]; Rate 500 g/ha, Preemergence): 10
Plant response rating, Cocklebur [10, 12]: 0
Cocklebur plant response rating ([10]; Rate 62 g/ha, Postemergence): 3
Plant response rating, Cocklebur ([10]; Rate 250 g/ha, Postemergence): 7
Plant response rating, Cocklebur ([10]; Rate 250 g/ha, Preemergence): 2
Plant response rating, Cocklebur ([10]; Rate 500 g/ha, Postemergence): 7
Plant response rating, Cocklebur ([10]; Rate 500 g/ha, Preemergence): 8
Plant response rating, Corn (corn (Zea mays); [12]): 0
Corn plant response rating (corn (Zea mays); Rate 62 g/ha, Postemergence): 1
Corn plant response rating (corn (Zea mays); Rate 125 g/ha, Postemergence): 1
Plant response rating, Corn (corn (Zea mays); Rate 125 g/ha, Preemergence): 1
Plant response rating, Corn (corn (Zea mays); Rate 250 g/ha, Postemergence): 2
Plant response rating, Corn (corn (Zea mays); Rate 250 g/ha, Preemergence): 1
Plant response rating, Corn (corn (Zea mays); Rate 500 g/ha, Postemergence): 2
Plant response rating, Corn (corn (Zea mays); Rate 500 g/ha, Preemergence): 1
Plant response rating, Crabgrass [11, 12]: 3
Crabgrass plant response rating ([11]; Rate 62 g/ha, Postemergence): 5
Crabgrass plant response rating ([11]; Rate 125 g/ha, Postemergence): 8
Plant response rating, Crabgrass ([11]; Rate 125 g/ha, Preemergence): 4
Plant response rating, Crabgrass ([11]; Rate 250 g/ha, Postemergence): 8
Plant response rating, Crabgrass ([11]; Rate 250 g/ha, Preemergence): 9
Plant response rating, Crabgrass ([11]; Rate 500 g/ha, Postemergence): 8
Plant response rating, Crabgrass ([11]; Rate 500 g/ha, Preemergence): 10
